Laboratory results as given in patent publication US11807644B2 (PMV Pharmaceuticals, Inc., priority 2020, dated 2023).

The compounds below were run against T1, recombinant His-tag Y220C p53 DBD protein (Homo sapiens, UniProt P04637, Y220C) (assay: In vitro DNA binding activity assay (TR-FRET): binding of His-tag Y220C p53 DBD to biotin-labeled consensus DNA). Details: SC150 = concentration to increase DNA binding by […], His-tag Y220C p53 DBD, biotin-labeled consensus DNA.
T1 construct: recombinant His-tag Y220C p53 DBD protein (amino acids #˜94-312)
Type: biochemical
With CN1CC[C@@H](Nc2cccc3c2cc(-c2cc(CNC(=O)c4csc(C(C)(C)O)c4)on2)n3CC(F)(F)F)[C@@H](F)C1 [Compound 555B, N-{[3-(4-{[(3S,4R)-3-fluoro-1-methylpiperidin-4-yl]amino}-1-(2,2,2-trifluoroethyl)-1H-indol-2-yl)-1,2-oxazol-5-yl]methyl}-5-(2-hydroxypropan-2-yl)thiophene-3-carboxamide] the “Y220C SC150 (μM)” value was “* (* = 0 μM ≤ SC150 < 0.1 μM)”.
For COC(C)(C)c1cc(C(=O)NCc2nc(-c3cc4c(N[C@@H]5CCN(C)C[C@@H]5F)cccc4n3CC(F)(F)F)no2)cs1 [Compound 447B, N-{[3-(4-{[(3S,4R)-3-fluoro-1-methylpiperidin-4-yl]amino}-1-(2,2,2-trifluoroethyl)-1H-indol-2-yl)-1,2,4-oxadiazol-5-yl]methyl}-5-(2-methoxypropan-2-yl)thiophene-3-carboxamide], the “Y220C SC150 (μM)” value was “* (* = 0 μM ≤ SC150 < 0.1 μM)”.
CN1CC[C@@H](Nc2cccc3c2cc(-c2noc(CNc4nccc5c4cnn5C)n2)n3CC(F)(F)F)[C@@H](F)C1 [Compound 452B, N-[(3S,4R)-3-fluoro-1-methylpiperidin-4-yl]-2-{5-[({1-methyl-1H-pyrazolo[^4,3-c]pyridin-4-yl}amino)methyl]-1,2,4-oxadiazol-3-yl}-1-(2,2,2-trifluoroethyl)-1H-indol-4-amine] was tested, and the “Y220C SC150 (μM)” value was “* (* = 0 μM ≤ SC150 < 0.1 μM)”.
CN1CC[C@@H](Nc2cccc3c2cc(-c2ncc(CNc4ccccc4)s2)n3CC(F)(F)F)[C@@H](F)C1 (racemic) [Compound 98B, (+/−)-N-[(3R,4S)-3-fluoro-1-methylpiperidin-4-yl]-2-{5-[(phenylamino)methyl]-1,3-thiazol-2-yl}-1-(2,2,2-trifluoroethyl)-1H-indol-4-amine] was tested, and the “Y220C SC150 (μM)” value was “* (* = 0 μM ≤ SC150 < 0.1 μM)”.
With COCc1ccc(C(=O)NCc2nc(-c3cc4c(N[C@@H]5CCN(C)C[C@@H]5F)cccc4n3CC(F)(F)F)no2)s1 [Compound 458B, N-{[3-(4-{[(3S,4R)-3-fluoro-1-methylpiperidin-4-yl]amino}-1-(2,2,2-trifluoroethyl)-1H-indol-2-yl)-1,2,4-oxadiazol-5-yl]methyl}-5-(methoxymethyl)thiophene-2-carboxamide] the “Y220C SC150 (μM)” value was “* (* = 0 μM ≤ SC150 < 0.1 μM)”.
For CC(=O)NCc1nc(-c2cc3c(N[C@@H]4CCN(C)C[C@@H]4F)cccc3n2CC(F)(F)F)no1 [Compound 228B, N-{[3-(4-{[(3S,4R)-3-fluoro-1-methylpiperidin-4-yl]amino}-1-(2,2,2-trifluoroethyl)-1H-indol-2-yl)-1,2,4-oxadiazol-5-yl]methyl}acetamide], the “Y220C SC150 (μM)” value was “* (* = 0 μM ≤ SC150 < 0.1 μM)”.
In the case of CN1CC[C@H](Nc2cccc3c2cc(-c2nnc(CNCC4CC4)o2)n3CC(F)(F)F)[C@H](F)C1 (racemic) [Compound 121B, (+/−)-2-(5-{[(cyclopropylmethyl)amino]methyl}-1,3,4-oxadiazol-2-yl)-N-[(3R,4S)-3-fluoro-1-methylpiperidin-4-yl]-1-(2,2,2-trifluoroethyl)-1H-indol-4-amine], the “Y220C SC150 (μM)” value is reported as “**** (**** = 1 μM ≤ SC150 < 10 μM)”.
For CNC(=O)NCc1nnc(-c2cc3c(NC4CCN(C)CC4)cccc3n2CC(F)(F)F)s1 [Compound 56B, 3-methyl-1-[(5-{4-[(1-methylpiperidin-4-yl)amino]-1-(2,2,2-trifluoroethyl)-1H-indol-2-yl}-1,3,4-thiadiazol-2-yl)methyl]urea], the “Y220C SC150 (μM)” value was “** (** = 0.1 μM ≤ SC150 < 0.5 μM)”.
CN1CC[C@@H](Nc2cccc3c2cc(-c2noc(CNC(=O)c4cnc(N5CCCC5)s4)n2)n3CC(F)(F)F)[C@@H](F)C1 [Compound 459B, N-{[3-(4-{[(3S,4R)-3-fluoro-1-methylpiperidin-4-yl]amino}-1-(2,2,2-trifluoroethyl)-1H-indol-2-yl)-1,2,4-oxadiazol-5-yl]methyl}-2-(pyrrolidin-1-yl)-1,3-thiazole-5-carboxamide] was tested, and the “Y220C SC150 (μM)” value was “* (* = 0 μM ≤ SC150 < 0.1 μM)”.
O=C(NCc1nc(-c2cc3c(NC4CCN(Cc5ccccc5)CC4)cccc3n2CC(F)(F)F)no1)C1CC1 [Compound 163B, N-[(3-{4-[(1-benzylpiperidin-4-yl)amino]-1-(2,2,2-trifluoroethyl)-1H-indol-2-yl}-1,2,4-oxadiazol-5-yl)methyl]cyclopropanecarboxamide] was tested, and the “Y220C SC150 (μM)” value was “* (* = 0 μM ≤ SC150 < 0.1 μM)”.
For CCN1CC[C@@H](Nc2cccc3c2cc(-c2noc(CNC(=O)c4cnn(C5CCOC5)c4)n2)n3CC(F)(F)F)[C@@H](F)C1 (stereo partly drawn) [Compound 314B, N-{[3-(4-{[(3S,4R)-1-ethyl-3-fluoropiperidin-4-yl]amino}-1-(2,2,2-trifluoroethyl)-1H-indol-2-yl)-1,2,4-oxadiazol-5-yl]methyl}-1-(oxolan-3-yl)-1H-pyrazole-4-carboxamide], the “Y220C SC150 (μM)” value was “* (* = 0 μM ≤ SC150 < 0.1 μM)”.
With CN1CC[C@@H](Nc2cccc3c2cc(-c2noc(CNC(=O)[C@@H]4C[C@H]4CN4CCOCC4)n2)n3CC(F)(F)F)[C@@H](F)C1 [Compound 245B, (1R,2R)-N-{[3-(4-{[(3S,4R)-3-fluoro-1-methylpiperidin-4-yl]amino}-1-(2,2,2-trifluoroethyl)-1H-indol-2-yl)-1,2,4-oxadiazol-5-yl]methyl}-2-[(morpholin-4-yl)methyl]cyclopropane-1-carboxamide] the “Y220C SC150 (μM)” value was “* (* = 0 μM ≤ SC150 < 0.1 μM)”.
CCn1ccc(C(=O)NCc2nc(-c3cc4c(N[C@@H]5CCN(C)C[C@@H]5F)cccc4n3CC(F)(F)F)no2)c1 [Compound 186B, 1-ethyl-N-{[3-(4-{[(3S,4R)-3-fluoro-1-methylpiperidin-4-yl]amino}-1-(2,2,2-trifluoroethyl)-1H-indol-2-yl)-1,2,4-oxadiazol-5-yl]methyl}-1H-pyrrole-3-carboxamide] was tested, and the “Y220C SC150 (μM)” value was “* (* = 0 μM ≤ SC150 < 0.1 μM)”.
In the case of CN1CC[C@@H](Nc2cccc3c2cc(-c2noc(CNC(=O)c4ccc(C5(C)CC5)s4)n2)n3CC(F)(F)F)[C@@H](F)C1 [Compound 446B], the “Y220C SC150 (μM)” value is reported as “* (* = 0 μM ≤ SC150 < 0.1 μM)”.
COC(C)Cn1ccc(C(=O)NCc2nc(-c3cc4c(N[C@@H]5CCN(C)C[C@@H]5F)cccc4n3CC(F)(F)F)no2)c1 (stereo partly drawn) [Compound 253B, N-{[3-(4-{[(3S,4R)-3-fluoro-1-methylpiperidin-4-yl]amino}-1-(2,2,2-trifluoroethyl)-1H-indol-2-yl)-1,2,4-oxadiazol-5-yl]methyl}-1-(2-methoxypropyl)-1H-pyrrole-3-carboxamide] was tested, and the “Y220C SC150 (μM)” value was “* (* = 0 μM ≤ SC150 < 0.1 μM)”.

Same assay, conditions: concentration to increase DNA binding by […], incubated at either 27° C. or 29° C. for 60 min
In the case of CC(C)(C)OC(=O)NCc1ccc(-c2cc3c(NC4CCS(=O)(=O)CC4)cccc3n2CC(F)(F)F)cc1 [Compound 6A, tert-butyl N-[(4-{4-[(1,1-dioxo-1λ^6-thian-4-yl)amino]-1-(2,2,2-trifluoroethyl)-1H-indol-2-yl}phenyl)methyl]carbamate], the “SC150 (μM)” value is reported as “++ (++ = 2 μM ≤ SC150 < 5 μM)”.
In the case of COc1cc(S(C)(=O)=O)ccc1NCc1ccc(-c2cc3c(N[C@H]4CCN(C)C[C@H]4F)cccc3n2CC(F)(F)F)cc1 (racemic) [Compound 43A, (+/−)-N-[(3R,4S)-3-fluoro-1-methylpiperidin-4-yl]-2-(4-{[(4-methanesulfonyl-2-methoxyphenyl)amino]methyl}phenyl)-1-(2,2,2-trifluoroethyl)-1H-indol-4-amine], the “SC150 (μM)” value is reported as “+ (+ = 0 μM ≤ SC150 < 2 μM)”.
